In US20200390899A1, “AMINOBENZAZEPINE COMPOUNDS, IMMUNOCONJUGATES, AND USES THEREOF” (BOLT BIOTHERAPEUTICS, INC., priority 2019, published 2020):
Read-outs that look alike come from different tables or passages of the source.

What was measured:
human TLR7 = target: T1, human TLR7 (Homo sapiens, UniProt Q9NYK1); test: HEK293 NFKB reporter assay, human TLR7; type: cell-based; conditions: HEK293 reporter cells expressing human TLR7, read-out: HEK293 hTLR7 EC50
T1 construct: host or cells: HEK293 reporter cells
T1 sequence (Q9NYK1 27-1049): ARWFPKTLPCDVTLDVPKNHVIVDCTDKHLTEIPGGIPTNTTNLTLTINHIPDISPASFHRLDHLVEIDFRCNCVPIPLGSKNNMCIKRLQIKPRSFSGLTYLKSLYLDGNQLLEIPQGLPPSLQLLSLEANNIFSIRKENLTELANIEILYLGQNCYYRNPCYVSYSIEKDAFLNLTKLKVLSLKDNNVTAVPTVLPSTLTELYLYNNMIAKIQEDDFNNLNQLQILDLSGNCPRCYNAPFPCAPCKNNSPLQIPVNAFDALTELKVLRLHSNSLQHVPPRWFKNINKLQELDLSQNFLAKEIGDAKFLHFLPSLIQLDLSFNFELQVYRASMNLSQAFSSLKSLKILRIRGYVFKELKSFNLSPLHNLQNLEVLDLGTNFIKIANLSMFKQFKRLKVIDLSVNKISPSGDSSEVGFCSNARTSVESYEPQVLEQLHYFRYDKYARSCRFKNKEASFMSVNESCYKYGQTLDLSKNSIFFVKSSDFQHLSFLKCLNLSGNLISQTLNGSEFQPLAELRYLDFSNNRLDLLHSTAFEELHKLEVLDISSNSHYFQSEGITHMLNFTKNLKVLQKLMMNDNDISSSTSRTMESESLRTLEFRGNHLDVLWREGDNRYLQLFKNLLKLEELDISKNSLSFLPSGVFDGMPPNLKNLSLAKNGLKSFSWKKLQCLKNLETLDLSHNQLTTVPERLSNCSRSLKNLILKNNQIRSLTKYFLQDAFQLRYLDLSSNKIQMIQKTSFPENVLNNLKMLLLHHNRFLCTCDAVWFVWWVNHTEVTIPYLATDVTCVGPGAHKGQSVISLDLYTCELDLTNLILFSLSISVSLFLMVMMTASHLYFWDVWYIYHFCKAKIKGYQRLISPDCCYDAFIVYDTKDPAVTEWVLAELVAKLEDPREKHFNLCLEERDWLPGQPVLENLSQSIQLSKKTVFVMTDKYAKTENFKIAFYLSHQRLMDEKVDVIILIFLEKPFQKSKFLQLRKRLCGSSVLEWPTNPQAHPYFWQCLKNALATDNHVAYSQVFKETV
Protocol: (§1) Each compound was synthesized and purified by the methods in the Examples provided herein, characterized by mass spectrometry, and shown to have the mass indicated. Activity against HEK293 NFKB reporter cells expressing human TLR7 or human TLR8 was measured according to Example 68.
(§2) HEK293 reporter cells expressing human TLR7 or human TLR8 were purchased from Invivogen and vendor protocols were followed for cellular propagation and experimentation. Briefly, cells were grown to 80-85% confluence at 5% CO2 in DMEM supplemented with 10% FBS, Zeocin, and Blasticidin. Cells were then seeded in 96-well flat plates at 4×10^4cells/well with substrate containing HEK detection medium and immunostimulatory molecules. Activity was measured using a plate reader at 620-655 nm wavelength.

human TLR8 = target: T2, human TLR8 (Homo sapiens, UniProt Q9NR97); test: HEK293 NFKB reporter assay, human TLR8; type: cell-based; conditions: HEK293 reporter cells expressing human TLR8, read-out: HEK293 hTLR8 EC50
T2 construct: host or cells: HEK293 reporter cells
T2 sequence (Q9NR97 27-1041): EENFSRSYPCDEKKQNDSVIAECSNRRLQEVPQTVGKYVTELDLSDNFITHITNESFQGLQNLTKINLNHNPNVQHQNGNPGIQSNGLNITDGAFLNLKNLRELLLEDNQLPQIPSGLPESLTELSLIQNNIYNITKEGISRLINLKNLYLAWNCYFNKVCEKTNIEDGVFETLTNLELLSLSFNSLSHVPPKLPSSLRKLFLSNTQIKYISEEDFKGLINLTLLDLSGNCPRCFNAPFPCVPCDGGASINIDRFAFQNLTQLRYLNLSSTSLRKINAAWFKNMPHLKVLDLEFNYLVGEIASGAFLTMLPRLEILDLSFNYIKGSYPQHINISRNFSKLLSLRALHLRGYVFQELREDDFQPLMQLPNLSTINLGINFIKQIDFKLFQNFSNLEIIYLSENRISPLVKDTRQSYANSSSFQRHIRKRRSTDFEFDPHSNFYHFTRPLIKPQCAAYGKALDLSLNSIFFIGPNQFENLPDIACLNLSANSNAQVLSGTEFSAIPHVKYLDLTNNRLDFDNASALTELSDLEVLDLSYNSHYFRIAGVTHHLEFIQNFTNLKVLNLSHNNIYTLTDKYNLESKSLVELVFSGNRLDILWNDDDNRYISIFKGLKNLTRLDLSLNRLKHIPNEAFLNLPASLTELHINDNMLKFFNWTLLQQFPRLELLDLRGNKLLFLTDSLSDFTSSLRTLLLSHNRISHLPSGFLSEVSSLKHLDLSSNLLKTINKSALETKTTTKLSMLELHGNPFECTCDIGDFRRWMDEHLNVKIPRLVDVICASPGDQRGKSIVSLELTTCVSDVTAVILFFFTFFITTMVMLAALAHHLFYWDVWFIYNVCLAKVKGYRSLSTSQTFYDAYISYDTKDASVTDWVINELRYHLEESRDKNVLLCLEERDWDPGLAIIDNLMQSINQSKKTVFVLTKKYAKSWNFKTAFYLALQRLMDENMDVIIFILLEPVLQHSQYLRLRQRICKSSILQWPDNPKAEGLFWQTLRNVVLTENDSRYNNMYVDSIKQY
Protocol: as §1, §2

EC50 (human TLR7; Table 1b) [µM]	EC50 (human TLR8; Table 1b) [µM]	EC50 (human TLR7; Table 1c) [µM]	EC50 (human TLR8; Table 1c) [µM]	Structure (SMILES)
> 9	0.341	–	–	CCCN(CCC(F)(F)F)C(=O)C1=Cc2ccc(-c3cccc(S(=O)(=O)N4CC(CO)C4)c3)cc2N=C(N)C1 [Bz-31, 2-amino-8-[3-[3-(hydroxymethyl)azetidin-1-yl]sulfonylphenyl]-N-propyl-N-(3,3,3-trifluoropropyl)-3H-1-benzazepine-4-carboxamide]
> 9	> 9	–	–	CCCN(Cc1ccc(CN2CCNCC2)cc1)C(=O)C1=Cc2ccc(-c3cccc(S(=O)(=O)N4CC(CO)C4)c3)cc2N=C(N)C1 [Bz-32, 2-amino-8-[3-[3-(hydroxymethyl)azetidin-1-yl]sulfonylphenyl]-N-[[4-(piperazin-1-ylmethyl)phenyl]methyl]-N-propyl-3H-1-benzazepine-4-carboxamide]
1.43	1.92	–	–	CCCN(CCCNC(=O)c1ccc(OCC)cc1)C(=O)C1=Cc2ccc(-c3cccc(S(=O)(=O)N4CC(CO)C4)c3)cc2N=C(N)C1 [Bz-33, 2-amino-N-(3-(4-ethoxybenzamido)propyl)-8-(3-((3-(hydroxymethyl)azetidin-1-yl)sulfonyl)phenyl)-N-propyl-3H-benzo[b]azepine-4-carboxamide]
> 9	1.04	–	–	CCCN(CCCNC(=O)c1ccc(OCC)cc1)C(=O)C1=Cc2ccc(C(=O)Nc3ccccc3)cc2N=C(N)C1 [Bz-34, 2-amino-N^4-(3-(4-ethoxybenzamido)propyl)-N^8-phenyl-N^4-propyl-3H-benzo[b]azepine-4,8-dicarboxamide]
–	–	0.042	0.728	CCCN(CCC)C(=O)C1=Cc2ccc(-c3cc(C(F)(F)F)cc(S(=O)(=O)N4CC(CN(C)C)C4)c3)cc2N=C(N)C1 [Bz-39]
–	–	≥ 9	0.049	CCCN(OCC)C(=O)C1=Cc2ccc(-c3cccc(S(=O)(=O)N4CC(CO)C4)c3)cc2N=C(N)C1 [Bz-42]
–	–	≥ 9	0.341	CCCN(CCC(F)(F)F)C(=O)C1=Cc2ccc(-c3cccc(S(=O)(=O)N4CC(CO)C4)c3)cc2N=C(N)C1 [Bz-47]
–	–	≥ 9	≥ 9	CCCN(Cc1ccc(CN2CCNCC2)cc1)C(=O)C1=Cc2ccc(-c3cccc(S(=O)(=O)N4CC(CO)C4)c3)cc2N=C(N)C1 [Bz-49]
–	–	1.43	1.92	CCCN(CCCNC(=O)c1ccc(OCC)cc1)C(=O)C1=Cc2ccc(-c3cccc(S(=O)(=O)N4CC(CO)C4)c3)cc2N=C(N)C1 [Bz-51]
–	–	≥ 9	1.04	CCCN(CCCNC(=O)c1ccc(OCC)cc1)C(=O)C1=Cc2ccc(C(=O)Nc3ccccc3)cc2N=C(N)C1 [Bz-55]
–	–	1.27	0.008	CCCN(OCC)C(=O)C1=Cc2ccc(-c3cccc(S(=O)(=O)N4CC(CN(C)C)C4)c3)cc2N=C(N)C1 [Bz-63]
–	–	4.61	0.026	CCON(CCC(F)(F)F)C(=O)C1=Cc2ccc(-c3cccc(S(=O)(=O)N4CC(CO)C4)c3)cc2N=C(N)C1 [Bz-66]
–	–	3.93	2.05	CCCN(CCC)C(=O)C1=Cc2ccc(C#CCCCNC(=O)OC(C)(C)C)cc2N=C(N)C1 [Bz-67]
–	–	4.6	3.07	CCCN(CCC)C(=O)C1=Cc2ccc(C#CCCCN)cc2N=C(N)C1 [Bz-68]
–	–	3.21	6.67	CCCN(CCC)C(=O)C1=Cc2ccc(CCCCCNC(=O)OC(C)(C)C)cc2N=C(N)C1 [Bz-69]
–	–	4.48	0.12	CCCN(OCC(F)(F)F)C(=O)C1=Cc2ccc(-c3cccc(S(=O)(=O)N4CC(CO)C4)c3)cc2N=C(N)C1 [Bz-73]
–	–	0.969	0.786	CCCN(CCc1ccc(OC)cc1)C(=O)C1=Cc2ccc(-c3cccc(S(=O)(=O)N4CC(CN(C)C)C4)c3)cc2N=C(N)C1 [Bz-76]
